Source: patent US7112574B2, “C2,8-disubstituted adenosine derivatives and their different uses” (priority 2001, dated 2006)
Like-named read-outs stand apart in the source and are kept apart here.

Experiments:
[1] = target: T1, human A3 receptor (Homo sapiens, UniProt P0DMS8); experiment: Radioligand binding, displacement of [125I]AB-MECA from human A3 receptor expressed in HEK 293 cells; conditions: for % displacement at 10^-5 M, A3: 10 μM, n=2, mean value
T1 construct: expressed in transfected cells; host or cells: HEK 293
T1 sequence (P0DMS8 1-318): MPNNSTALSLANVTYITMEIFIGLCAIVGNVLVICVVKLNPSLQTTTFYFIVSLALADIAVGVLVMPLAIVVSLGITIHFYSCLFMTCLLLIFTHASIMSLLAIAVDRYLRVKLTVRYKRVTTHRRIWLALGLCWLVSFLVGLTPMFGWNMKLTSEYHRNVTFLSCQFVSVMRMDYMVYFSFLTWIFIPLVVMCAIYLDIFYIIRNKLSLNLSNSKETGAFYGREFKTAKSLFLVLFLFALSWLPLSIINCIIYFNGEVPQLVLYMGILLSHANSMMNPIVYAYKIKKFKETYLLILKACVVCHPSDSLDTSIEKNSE
Description: (§1) Incubations were carried out for 1 hr at 37° C. and were terminated by rapid filtration over Whatman GF/B filters, using a Brandell cell harvester (Brandell, Gaithersburg, Md.). Tubes were washed three times with 3 ml of buffer. Radioactivity was determined in a Beckman 5500B γ-counter. Nonspecific binding was determined in the presence of 10^−5 M R-PIA.
(§2) All compounds prepared were tested in radioligand binding assays to determine their affinities for the adenosine A1 receptor in rat brain cortex, the A2A receptor in rat striatum and the human A3 receptor as expressed in HEK 293 cells (Table 2, hereinafter). The Ki values were computed from the displacement curves obtained by nonlinear regression of the competition curves with the software package Prism (Graph Pad, San Diego, Calif.)
(§3) For the adenosine A1 receptor, the tritiated antagonist, [^3H]-1,3-dipropyl-8-cyclopentylxanthine ([^3H]DPCPX), and for the adenosine A2A receptor, the tritiated antagonist [^3H]ZM 241385 were used. Since radiolabeled antagonists are not commercially available for the adenosine A3 receptor, [125I]AB-MECA, an A3 receptor agonist, was used. Displacement experiments were performed in the absence of GTP.

[2] = target: T2, adenosine A1 receptor (Rattus norvegicus, UniProt P25099); experiment: biochemical; conditions: for inhibition at 10 µM: read-out: % displacement at 10^-5 M, A1
T2 sequence (P25099 1-326): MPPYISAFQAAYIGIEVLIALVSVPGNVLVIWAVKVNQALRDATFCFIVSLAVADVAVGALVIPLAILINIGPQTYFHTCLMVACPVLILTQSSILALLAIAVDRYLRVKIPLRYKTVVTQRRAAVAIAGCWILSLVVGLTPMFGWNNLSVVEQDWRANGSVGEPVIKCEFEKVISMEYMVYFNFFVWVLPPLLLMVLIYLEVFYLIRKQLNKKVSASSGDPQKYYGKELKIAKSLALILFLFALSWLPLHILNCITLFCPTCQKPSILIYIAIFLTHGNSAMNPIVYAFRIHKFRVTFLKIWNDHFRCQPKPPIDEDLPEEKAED
Description: as §1, §2, §3

[3] = target: adenosine A2A receptor (Rattus norvegicus, UniProt P30543); experiment: biochemical; conditions: for % displacement at 10^-5 M, A2A: [3H]ZM241385, rat striatal membranes, 10 μM, n=2, mean value; for A3/A2A: ratio of Ki A3 (human) to Ki A2A (rat)
Description: as §1, §2, §3

[4] = target: human adenosine A2A receptors (Homo sapiens, UniProt P29274); conditions: for agonist behaviour (intrinsic activity) at the adenosine A2A receptor: cAMP production compared to reference agonist CGS 21680, words
Description: CHO cells expressing the human adenosine A2A receptors were grown overnight as a monolayer in 24 wells tissue culture plates (400 μl/well; 2×10^5 cells/well). cAMP generation was performed in Dulbecco's Modified Eagles Medium (DMEM)/N-2-hydroxyethylpiperazin-N′-2-ethansulfonic acid HEPES) buffer (0.60 g HEPES/50 ml DMEM pH 7.4). To each well, washed three times with DMEM/HEPES buffer (250 μl), 100 μl DMEM/HEPES buffer, 100 μl adenosine deaminase (final concentration 5 IU/ml) and 100 μl of a mixture of rolipram and cilostamide (final concentration 50 μM each) were added. After incubation for 40 minutes at 37° C., 100 μL agonist was added. After 15 minutes at 37° C., the reaction was terminated by removing the medium and adding 200 μl 0.1 M HCl. Wells were stored at −20° C. until assay.
The amounts of cAMP were determined after a protocol with cAMP binding protein^12 with the following minor modifications. As a buffer was used 150 mM K2HPO4/10 mM EDTA/0.2% Bovine Serum Albumine (BSA) at pH 7.5. Samples (20 μl+30 μl 0.1 M HCl) were incubated for at least 2.5 hours at 0° C. before filtration over Whatman GF/B filters. […] Filters were counted in Packard Emulsifier Safe scintillation fluid (3.5 ml) after 24 hours of extraction.
All compounds prepared were also tested in a functional assay.

[5] = [125I]AB-MECA, human A3 receptor in HEK 293 cells

Structure (SMILES)	% displacement at 10^-5 M, A3 [1, 5] [%]	inhibition at 10 µM [2] [%]	% displacement at 10^-5 M, A2A [3] [%]	% cAMP production hA2A [4]	melting point [°C]	Ki [2] [nM]	agonist behaviour (intrinsic activity) at the adenosine A2A receptor [4]	Ki [1] [nM]	Ki ([1]; [125I]AB-MECA, human A3 receptor in HEK 293 cells, ±SEM, n=3, read-out: Ki A3) [nM]	Ki [3] [nM]	A3/A2A [3]	selectivity for the adenosine A2A receptor compared to A3 ([3]; from Ki values) [fold]
Nc1nc(I)nc2c1nc(Br)n2[C@@H]1O[C@H](CO)[C@@H](O)[C@H]1O [Compound 5, 2-iodo-8-bromoadenosine]	6.2	21.6	43.1									
CCCC/C=C/c1nc(N)c2nc(NCc3ccccc3)n([C@@H]3O[C@H](CO)[C@@H](O)[C@H]3O)c2n1 [Compound 21, 2-((E)-1-hexenyl)-8-benzylaminoadenosine]	24.3		26.3	73% (72–75)	153 to 155	2110 ± 560						
Nc1nc(I)nc2c1nc(NCc1ccccc1)n2[C@@H]1O[C@H](CO)[C@@H](O)[C@H]1O [Compound 11, 2-iodo-8-benzylaminoadenosine]	39.5	35.5	44.7	125% (92–157)			full agonists					
CCCNc1nc2c(N)nc(I)nc2n1[C@@H]1O[C@H](CO)[C@@H](O)[C@H]1O [Compound 9, 2-Iodo-8-propylaminoadenosine]		40.2	50.7		160 to 162			8670 ± 2000				
CCNc1nc2c(N)nc(I)nc2n1[C@@H]1O[C@H](CO)[C@@H](O)[C@H]1O [Compound 8, 2-iodo-8-ethylaminoadenosine]		35.2	40.6	77% (76–78)	205 to 207			5110 ± 890				
CCCCC#Cc1nc(N)c2ncn([C@@H]3O[C@H](CO)[C@@H](O)[C@H]3O)c2n1 [Compound 3, 2-(1-hexynyl)adenosine]				61% (58–64)			partial agonism		16.9 ± 4.1			
CCCC/C=C/c1nc(N)c2nc(NCCCC)n([C@@H]3O[C@H](CO)[C@@H](O)[C@H]3O)c2n1 [Compound 20, 2-((E)-1-hexenyl)-8-butylaminoadenosine]	47.4			36% (33–40)		906 ± 264				580 ± 250		
CNc1nc2c(N)nc(I)nc2n1[C@@H]1O[C@H](CO)[C@@H](O)[C@H]1O [Compound 7, 2-Iodo-8-methylaminoadenosine]		35.2	43.3	23% (20–25)	162 to 164			7310 ± 440				
CCCC/C=C/c1nc(N)c2nc(NCC)n([C@@H]3O[C@H](CO)[C@@H](O)[C@H]3O)c2n1 [Compound 18, 2-((E)-1-hexenyl)-8-ethylaminoadenosine]		30		65% (63–66)	128 to 130			17500 ± 2100		1840 ± 300	9.53	
CCCCC#Cc1nc(N)c2nc(NC)n([C@@H]3O[C@H](CO)[C@@H](O)[C@H]3O)c2n1 [Compound 12, 2-(1-Hexynyl)-8-methylaminoadenosine]		31.6		85% (85–86)				5640 ± 780		115	49.0	
CCCCNc1nc2c(N)nc(I)nc2n1[C@@H]1O[C@H](CO)[C@@H](O)[C@H]1O [Compound 10, 2-Iodo-8-butylaminoadenosine]	43.1	28.2		28% (27–30)						3110 ± 1650		
CCCC/C=C/c1nc(N)c2nc(NC)n([C@@H]3O[C@H](CO)[C@@H](O)[C@H]3O)c2n1 [Compound 17, 2-((E)-1-Hexenyl)-8-methylaminoadenosine]		17.9		54% (49–59)	161 to 166			13400 ± 2130		663 ± 106	20.3	
CCCCC#Cc1nc(N)c2nc(NCCCC)n([C@@H]3O[C@H](CO)[C@@H](O)[C@H]3O)c2n1 [Compound 15, 2-(1-hexynyl)-8-butylaminoadenosine]	64.3			72% (63–82)	182 to 184	539 ± 380				149 ± 29		
Nc1nc(I)nc2c1ncn2[C@@H]1O[C@H](CO)[C@@H](O)[C@H]1O [Compound 1, 2-Iodoadenosine]		36.1		126% (118–134)			full agonist					
CCCCC#Cc1nc(N)c2nc(NCc3ccccc3)n([C@@H]3O[C@H](CO)[C@@H](O)[C@H]3O)c2n1 [Compound 16, 2-(1-hexynyl)-8-Benzylaminoadenosine]			35.4	83% (61–106)	141 to 143	756 ± 483	full agonists	7970 ± 610				
CCCCC#Cc1nc(N)c2nc(NCCC)n([C@@H]3O[C@H](CO)[C@@H](O)[C@H]3O)c2n1 [Compound 14, 2-(1-Hexynyl)-8-propylaminoadenosine]		47.6		58% (50–66)	184 to 186			2160 ± 120		82	26.3	~26
CCCC/C=C/c1nc(N)c2ncn([C@@H]3O[C@H](CO)[C@@H](O)[C@H]3O)c2n1 [Compound 4, 2-((E)-1-hexenyl)adenosine]		53.1		82% (78–86)			partial agonism	73.5 ± 7.7		26.2 ± 1.8	2.78	
CCCCC#Cc1nc(N)c2nc(C#CCCCC)n([C@@H]3O[C@H](CO)[C@@H](O)[C@H]3O)c2n1 [Compound 22, 2,8-di-(1-hexynyl)adenosine]		50.3	28.7	99% (98–99)			full agonists	254 ± 34				
Nc1nc(NCc2ccccc2)nc2c1nc(NCc1ccccc1)n2[C@@H]1O[C@H](CO)[C@@H](O)[C@H]1O [Compound 23, 2,8-di-benzylaminoadenosine]	54.1	50.2	11.6	95% (90–100)			full agonists					
CCCCC#Cc1nc(N)c2nc(NCC)n([C@@H]3O[C@H](CO)[C@@H](O)[C@H]3O)c2n1 [Compound 13, 2-(1-hexynyl)-8-ethylaminoadenosine]		30.9		134% (124–143)			full agonist	8830 ± 1230		253 ± 29	34.9	
